Laboratory results: patent publication US20250084044A1, “PROTOPORPHYRINOGEN OXIDASE INHIBITORS” (Enko Chem, Inc., priority 2022, published 2025)

Legend:
Format in all cases: in vivo
Setaria italica (SETIT) [1] = experiment: Post-emergence herbicidal activity, SETIT; details: 7 days after treatment; for pest or weed control at 100 ppm: Setaria italica, 168 h, Table 3a; for Post-emergence (100 ppm) SETIT: Table 3b
Procedure: Selected compounds of the invention were screened at 100 PPM against Amaranthus retroflexus (AMARE), Setaria italica (SETIT), and Echinochloa crus-galli (ECHCG).
Accordingly, PPO susceptible weed seeds were sown in 5″×5″ pots by quadrant containing Miracle-Gro potting mix (Scotts Miracle-Gro Company, Marysville, OH. USA) and grown in a Conviron growth chamber with appropriate growth conditions (temperature of 26/22° C. with photoperiod 16/8 h light day/night and light intensity of 300 μmol m^−2 s^−1 supplemented by LED lamps). Relative humidity in the growth chamber was maintained at around 65%. Plants were grown until 2-4 leaf stage and thinned to 5-8 plants per quadrant per species.
(§1) Compounds were formulated in 25% Acetone, 1% Crop oil concentrate (COC-Agridex), 0.1% Tween-20, and 2.5% Ammonium sulphate (AMS). Three replicate pots were treated with each compound. Treatment consisting of the above formulation excluding active compound was applied as a treatment control (TC). Plants were treated with the test compound solution in a laboratory spray chamber fitted with 8003 flat fan nozzles calibrated to deliver 187-200 L ha^−1 at 269 kPa. Plants were placed back in the growth chamber and evaluated for % visual injury compared to TC 7 days after treatment (DAT). The data presented in Table 3 indicate a percentage control, where 100% control indicates complete inhibition of growth.
(§2) Selected compounds of the invention were screened at 100 PPM against Amaranthus retroflexus (AMARE), Echinochloa crus-galli (ECHCG), Kochia scoparia (KCHSC), and Setaria italica (SETIT).
(§3) Accordingly, PPO susceptible weed seeds were sown in 5″ 5″ pots by quadrant containing Miracle-Gro potting mix (Scotts Miracle-Gro Company, Marysville, OH, USA) and grown in a Conviron growth chamber with appropriate growth conditions (temperature of 26/22° C. with photoperiod 16/8 h light day/night and light intensity of […] supplemented by LED lamps). Relative humidity in the growth chamber was maintained at around 65%. Plants were grown until 2-4 leaf stage and thinned to 5-8 plants per quadrant per species.

[2] = system: Amaranthus retroflexus (AMARE); experiment: Post-emergence herbicidal activity, AMARE; details: 7 days after treatment; for pest or weed control at 100 ppm: Amaranthus retroflexus, 168 h, Table 3a; for Post-emergence (100 ppm) AMARE: Table 3b
Procedure: (§4) Selected compounds of the invention were screened at 100 PPM against Amaranthus retroflexus (AMARE), Setaria italica (SETIT), and Echinochloa crus-galli (ECHCG). […]
as §1, with “growth. […]” for “growth.”

[3] = system: Echinochloa crus-galli (ECHCG); experiment: Post-emergence herbicidal activity, ECHCG; details: 7 days after treatment; for pest or weed control at 100 ppm: Echinochloa crus-galli, 168 h, Table 3a; for Post-emergence (100 ppm) ECHCG: Table 3b
Procedure: as §4
as §1, with “growth. […]” for “growth.”

[4] = system: Amaranthus retroflexus (AMARE); experiment: Pre-emergence herbicidal activity, AMARE; details: 7 days after treatment
Description: (§5) Selected compounds of the invention were screened at 200 PPM against Amaranthus retroflexus (AMARE). Echinochloa crus-galli (ECHCG). Kochia scoparia (KCHSC), and Selaria italica (SETIT).
(§6) Accordingly, PPO susceptible weed seeds were planted in 5″×5″ pots by quadrant containing custom field soil mix (Sandy loam with 4.7% OM, pH 7.0) and covered with a fine layer of the same soil. Compounds were formulated in 25% Acetone, 1% Crop oil concentrate (COC-Agridex), 0.1% Tween-20, and 2.5% Ammonium sulphate (AMS). Three replicate pots were treated with each compound. Treatment consisting of the above formulation excluding active compound was applied as a treatment control (TC). Pots were treated with the test compound solution in a laboratory spray chamber fitted with 8003 flat fan nozzles calibrated to deliver 187-200 L ha^−1 at 269 kPa. Compound was incorporated into the soil by simulating rainfall equivalent to 0.2 mm using the same track sprayer. Subsequently, pots were irrigated from the bottom until assessed for % growth and germination inhibition. Pots were placed back in the growth chamber and evaluated for % growth and germination inhibition compared to TC 7 days after treatment (DAT). Growth conditions are similar to the ones mentioned in POST emergence assay.
(§7) The data presented in Table 4 indicate a percentage control, where 100% control indicates complete inhibition of growth.

[5] = system: Echinochloa crus-galli (ECHCG); experiment: Pre-emergence herbicidal activity, ECHCG; details: 7 days after treatment
Description: as §5, §6, §7

Setaria italica (SETIT) [6] = experiment: Pre-emergence herbicidal activity, SETIT; details: 7 days after treatment
Description: as §5, §6, §7

Kochia scoparia (KCHSC) [7] = experiment: Post-emergence herbicidal activity, KCHSC; details: 7 days after treatment, Table 3b
Procedure: as §2, §3, §1

Kochia scoparia (KCHSC) [8] = experiment: Pre-emergence herbicidal activity, KCHSC; details: 7 days after treatment
Description: as §5, §6, §7

Structure (SMILES)	pest or weed control at 100 ppm (Setaria italica (SETIT) [1])	pest or weed control at 100 ppm [2]	pest or weed control at 100 ppm [3]	Pre-emergence (200 ppm) AMARE [4]	Pre-emergence (200 ppm) ECHCG [5]	Post-emergence (100 ppm) SETIT (Setaria italica (SETIT) [1])	Pre-emergence (200 ppm) SETIT (Setaria italica (SETIT) [6])	Post-emergence (100 ppm) KCHSC (Kochia scoparia (KCHSC) [7])	Post-emergence (100 ppm) AMARE [2]	Post-emergence (100 ppm) ECHCG [3]	Pre-emergence (200 ppm) KCHSC (Kochia scoparia (KCHSC) [8])
COC(=O)[C@@H](C)N1C(=O)C(F)(F)Oc2cc(F)c(-c3c(F)c(F)c(F)c(F)c3F)cc21 [Compound 8, methyl (R)-2-(2,2,7-trifluoro-3-oxo-6-(perfluorophenyl)-2,3-dihydro-4H-benzo[b][1,4]oxazin-4-yl)propanoate]	75%	80%	45%								
COC(=O)[C@@H](C)N1C(=O)C(F)(F)Oc2cc(F)c(-c3c(F)cc(F)c(F)c3F)cc21 [Compound 77, methyl (2R)-2-(2,2,7-trifluoro-3-oxo-6-(2,3,4,6-tetrafluorophenyl)-2,3-dihydro-4H-benzo[b][1,4]oxazin-4-yl)propanoate]	98%	100%	88%	100%	3%	98%	70%	100%	100%	88%	0%
CN(CC(=O)O)C(=O)CN1C(=O)C(F)(F)Oc2cc(F)c(-c3c(F)c(F)c(F)c(F)c3F)cc21 [Compound 85, N-methyl-N-(2-(2,2,7-trifluoro-3-oxo-6-(perfluorophenyl)-2,3-dihydro-4H-benzo[b][1,4]oxazin-4-yl)acetyl)glycine]	88%	100%	25%								
COC(=O)[C@H](OC)N1C(=O)C(F)(F)Oc2cc(F)c(-c3c(F)c(F)c(F)c(F)c3F)cc21 [Compound 185, methyl (S)-2-methoxy-2-(2,2,7-trifluoro-3-oxo-6-(perfluorophenyl)-2,3-dihydro-4H-benzo[b][1,4]oxazin-4-yl)acetate]				100%	43%	100%	100%	100%	100%	50%	83%
COC(=O)CCNC(=O)[C@H](C)N1C(=O)C(F)(F)Oc2cc(F)c(-c3c(F)c(F)c(F)c(F)c3F)cc21 [Compound 130, methyl (S)-3-(2-(2,2,7-trifluoro-3-oxo-6-(perfluorophenyl)-2,3-dihydro-4H-benzo[b][1,4]oxazin-4-yl)propanamido)propanoate]	100%	100%	92%								
COC(=O)CCNC(=O)[C@@H](C)N1C(=O)C(F)(F)Oc2cc(F)c(-c3c(F)c(F)c(F)c(F)c3F)cc21 [Compound 131, methyl (R)-3-(2-(2,2,7-trifluoro-3-oxo-6-(perfluorophenyl)-2,3-dihydro-4H-benzo[b][1,4]oxazin-4-yl)propanamido)propanoate]	83%	100%	15%								
COC(=O)CCN(C)C(=O)[C@H](C)N1C(=O)C(F)(F)Oc2cc(F)c(-c3c(F)c(F)c(F)c(F)c3F)cc21 [Compound 132, methyl (S)-3-(N-methyl-2-(2,2,7-trifluoro-3-oxo-6-(perfluorophenyl)-2,3-dihydro-4H-benzo[b][1,4]oxazin-4-yl)propanamido)propanoate]	100%	100%	70%								
C[C@@H](C(=O)O)N1C(=O)C(F)(F)Oc2cc(F)c(-c3c(F)cc(F)c(F)c3F)cc21 [Compound 78, (2S)-2-(2,2,7-trifluoro-3-oxo-6-(2,3,4,6-tetrafluorophenyl)-2,3-dihydro-4H-benzo[b][1,4]oxazin-4-yl)propanoic acid]	100%	100%	70%	100%	5%	100%	18%	93%	100%	70%	60%
COC(=O)[C@@H]1CCCN1C(=O)CN1C(=O)C(F)(F)Oc2cc(F)c(-c3c(F)c(F)c(F)c(F)c3F)cc21 [Compound 74, methyl (2-(2,2,7-trifluoro-3-oxo-6-(perfluorophenyl)-2,3-dihydro-4H-benzo[b][1,4]oxazin-4-yl)acetyl)-L-prolinate]	100%	100%	33%								
COC(=O)CCN(C)C(=O)CN1C(=O)C(F)(F)Oc2cc(F)c(-c3c(F)c(F)c(F)c(F)c3F)cc21 [Compound 80, methyl 3-(N-methyl-2-(2,2,7-trifluoro-3-oxo-6-(perfluorophenyl)-2,3-dihydro-4H-benzo[b][1,4]oxazin-4-yl)acetamido)propanoate]	93%	100%	75%	98%	0%	93%	3%	20%	100%	75%	0%
C[C@@H](C(=O)O)N1C(=O)C(F)(F)Oc2cc(F)c(-c3c(F)c(F)c(F)c(F)c3F)cc21 [Compound 11, (S)-2-(2,2,7-trifluoro-3-oxo-6-(perfluorophenyl)-2,3-dihydro-4H-benzo[b][1,4]oxazin-4-yl)propanoic acid]	96%	95%	83%								
